Data taken from US12473304B2, “Heterocyclic PAD4 inhibitors” (BRISTOL-MYERS SQUIBB COMPANY, priority 2020, dated 2025).
pIC50: −log10 of the molar value.

Biological target: human PAD4 (hPAD4) (Homo sapiens (Human), UniProt Q9UM07)
Assay: RFMS Human PAD4 Functional Assay 1
Assay type: biochemical
Conditions: RFMS assay 1; 5 nM hPAD4, 250 μM BAEE substrate, 50 μM calcium, 37° C.
Method in brief: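 Recombinant hPAD4 (5 nM) was preincubated with compound (top 50 μM, 0.5% DMSO) for 30 min at 37 °C, then reacted with 250 μM BAEE for 90 min at 37 °C in pH 7.5 HEPES buffer with 50 μM calcium and 5 μM TPEN. Product was derivatized with phenyl glyoxal and quantified by RapidFire MS.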

human PAD4 (hPAD4), sequence (Q9UM07 whole entry): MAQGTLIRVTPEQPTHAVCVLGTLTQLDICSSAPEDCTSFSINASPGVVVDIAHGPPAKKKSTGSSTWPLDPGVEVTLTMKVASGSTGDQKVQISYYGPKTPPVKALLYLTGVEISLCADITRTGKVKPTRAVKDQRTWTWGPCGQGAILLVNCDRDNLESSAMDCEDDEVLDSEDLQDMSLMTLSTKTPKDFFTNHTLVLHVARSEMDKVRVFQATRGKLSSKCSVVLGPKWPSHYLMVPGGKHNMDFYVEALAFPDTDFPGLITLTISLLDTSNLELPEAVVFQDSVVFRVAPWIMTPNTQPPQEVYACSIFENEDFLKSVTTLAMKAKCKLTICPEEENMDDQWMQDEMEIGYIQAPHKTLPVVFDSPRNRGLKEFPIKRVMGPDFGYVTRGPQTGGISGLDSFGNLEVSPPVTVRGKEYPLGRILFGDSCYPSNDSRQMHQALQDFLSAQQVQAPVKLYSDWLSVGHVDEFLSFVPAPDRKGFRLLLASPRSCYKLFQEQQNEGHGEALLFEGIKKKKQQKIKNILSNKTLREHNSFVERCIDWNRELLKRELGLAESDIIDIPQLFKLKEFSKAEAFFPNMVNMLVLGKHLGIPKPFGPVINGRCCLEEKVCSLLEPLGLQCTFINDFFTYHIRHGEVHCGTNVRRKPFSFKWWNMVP

SMILES	pIC50
COc1cc(C(=O)N2C[C@H](N)C[C@@H](F)C2)cn2nc(-c3cc4ccc(-c5cc(F)c6[nH]c(=O)ccc6c5C)cc4n3CC3CC3)c(C)c12 [Example 225, 6-(2-{6-[(3R,5R)-3-Amino-5-fluoropiperidine-1-carbonyl]-4-methoxy-3-methylpyrazolo[1,5-a]pyridin-2-yl}-1-(cyclopropylmethyl)-1H-indol-6-yl)-8-fluoro-5-methyl-1,2-dihydroquinolin-2-one]	7.10
COc1cc(C(=O)N2C[C@H](N)C[C@@H](F)C2)cn2nc(-c3cc4ccc(-c5ccc(NC(C)=O)nc5)cc4n3CC3CC3)c(C)c12 [Example 226, N-[5-(2-{6-[(3R,5R)-3-Amino-5-fluoropiperidine-1-carbonyl]-4-methoxy-3-methylpyrazolo[1,5-a]pyridin-2-yl}-1-(cyclopropylmethyl)-1H-indol-6-yl)pyridin-2-yl]acetamide]	7.30
COc1cc(C(=O)N2CCC[C@@H](N)C2)cn2nc(-c3cc4ccc(-c5cccc(CO)c5)cc4n3CC3CC3)c(C)c12 [Example 227, [3-(2-{6-[(3R)-3-Aminopiperidine-1-carbonyl]-4-methoxy-3-methylpyrazolo[1,5-a]pyridin-2-yl}-1-(cyclopropylmethyl)-1H-indol-6-yl)phenyl]methanol]	6.02
COc1cc(C(=O)N2CCC[C@@H](N)C2)cn2nc(-c3cc4ccc(-c5ccc(CNC(C)=O)cc5)cc4n3CC3CC3)c(C)c12 [Example 228, N-{[4-(2-{6-[(3R)-3-Aminopiperidine-1-carbonyl]-4-methoxy-3-methylpyrazolo[1,5-a]pyridin-2-yl}-1-(cyclopropylmethyl)-1H-indol-6-yl)phenyl]methyl}acetamide]	6.03
COc1cc(C(=O)N2CCC[C@@H](N)C2)cn2nc(-c3cc4ccc(-c5ccc(C(N)=O)cc5)cc4n3CC3CC3)c(C)c12 [Example 229, 4-(2-{6-[(3R)-3-Aminopiperidine-1-carbonyl]-4-methoxy-3-methylpyrazolo[1,5-a]pyridin-2-yl}-1-(cyclopropylmethyl)-1H-indol-6-yl)benzamide]	6.89
COc1cc(C(=O)N2CCC[C@@H](N)C2)cn2nc(-c3cc4ccc(-c5ccc(C(=O)N(C)C)cc5)cc4n3CC3CC3)c(C)c12 [Example 230, 4-(2-{6-[(3R)-3-Aminopiperidine-1-carbonyl]-4-methoxy-3-methylpyrazolo[1,5-a]pyridin-2-yl}-1-(cyclopropylmethyl)-1H-indol-6-yl)-N,N-dimethylbenzamide]	6.49
COc1cc(C(=O)N2CCC[C@@H](N)C2)cn2nc(-c3cc4ccc(-c5ccc(NS(C)(=O)=O)cc5)cc4n3CC3CC3)c(C)c12 [Example 231, N-[4-(2-{6-[(3R)-3-Aminopiperidine-1-carbonyl]-4-methoxy-3-methylpyrazolo[1,5-a]pyridin-2-yl}-1-(cyclopropylmethyl)-1H-indol-6-yl)phenyl]methanesulfonamide]	6.34
COc1cc(C(=O)N2CCC[C@@H](N)C2)cn2nc(-c3cc4ccc(-c5cccc(CNC(C)=O)c5)cc4n3CC3CC3)c(C)c12 [Example 232, N-{[3-(2-{6-[(3R)-3-Aminopiperidine-1-carbonyl]-4-methoxy-3-methylpyrazolo[1,5-a]pyridin-2-yl}-1-(cyclopropylmethyl)-1H-indol-6-yl)phenyl]methyl}acetamide]	6.05
COc1cc(C(=O)N2CCC[C@@H](N)C2)cn2nc(-c3cc4ccc(-c5ccccc5CO)cc4n3CC3CC3)c(C)c12 [Example 233, [2-(2-{6-[(3R)-3-Aminopiperidine-1-carbonyl]-4-methoxy-3-methylpyrazolo[1,5-a]pyridin-2-yl}-1-(cyclopropylmethyl)-1H-indol-6-yl)phenyl]methanol]	6.21
COc1cc(C(=O)N2CCC[C@@H](N)C2)cn2nc(-c3cc4ccc(-c5ccc(CNS(C)(=O)=O)cc5)cc4n3CC3CC3)c(C)c12 [Example 234, N-{[4-(2-{6-[(3R)-3-Aminopiperidine-1-carbonyl]-4-methoxy-3-methylpyrazolo[1,5-a]pyridin-2-yl}-1-(cyclopropylmethyl)-1H-indol-6-yl)phenyl]methyl}methanesulfonamide]	5.94
COc1cc(C(=O)N2CCC[C@@H](N)C2)cn2nc(-c3cc4ccc(-c5cccc(CNS(C)(=O)=O)c5)cc4n3CC3CC3)c(C)c12 [Example 235, N-{[3-(2-{6-[(3R)-3-Aminopiperidine-1-carbonyl]-4-methoxy-3-methylpyrazolo[1,5-a]pyridin-2-yl}-1-(cyclopropylmethyl)-1H-indol-6-yl)phenyl]methyl}methanesulfonamide]	6.60
COc1cc(C(=O)N2CCC[C@@H](N)C2)cn2nc(-c3cc4ccc(-c5ccccc5C(N)=O)cc4n3CC3CC3)c(C)c12 [Example 237, 2-(2-{6-[(3R)-3-Aminopiperidine-1-carbonyl]-4-methoxy-3-methylpyrazolo[1,5-a]pyridin-2-yl}-1-(cyclopropylmethyl)-1H-indol-6-yl)benzamide]	6.60
COc1cc(C(=O)N2CCC[C@@H](N)C2)cn2nc(-c3cc4ccc(-c5cccc6[nH]ncc56)cc4n3CC3CC3)c(C)c12 [Example 238, (3R)-1-{2-[1-(Cyclopropylmethyl)-6-(1H-indazol-4-yl)-1H-indol-2-yl]-4-methoxy-3-methylpyrazolo[1,5-a]pyridine-6-carbonyl}piperidin-3-amine]	6.38
COc1cc(C(=O)N2CCC[C@@H](N)C2)cn2nc(-c3cc4ccc(-c5cc(F)c6[nH]c(=O)ccc6c5C)cc4n3CC3CC3)c(C)c12 [Example 239, 6-(2-{6-[(3R)-3-Aminopiperidine-1-carbonyl]-4-methoxy-3-methylpyrazolo[1,5-a]pyridin-2-yl}-1-(cyclopropylmethyl)-1H-indol-6-yl)-8-fluoro-5-methyl-1,2-dihydroquinolin-2-one]	7.15
COc1cc(C(=O)N2CCC[C@@H](N)C2)cn2nc(-c3cc4ccc(-c5ccc(NC(C)=O)nc5)cc4n3CC3CC3)c(C)c12 [Example 240, N-[5-(2-{6-[(3R)-3-Aminopiperidine-1-carbonyl]-4-methoxy-3-methylpyrazolo[1,5-a]pyridin-2-yl}-1-(cyclopropylmethyl)-1H-indol-6-yl)pyridin-2-yl]acetamide]	6.74
COc1cc(C(=O)N2C[C@H](N)C[C@@H](F)C2)cn2nc(-c3cc4ccc(N5CCC(C(=O)N(C)C)CC5)cc4n3CC3CC3)c(C)c12 [Example 242, 1-(2-{6-[(3R,5R)-3-Amino-5-fluoropiperidine-1-carbonyl]-4-methoxy-3-methylpyrazolo[1,5-a]pyridin-2-yl}-1-(cyclopropylmethyl)-1H-indol-6-yl)-N,N-dimethylpiperidine-4-carboxamide]	7.05
COc1cc(C(=O)N2C[C@H](N)C[C@@H](F)C2)cn2nc(-c3cc4ccc(N5CCC(N(C)C(C)=O)CC5)cc4n3CC3CC3)c(C)c12 [Example 243, N-[1-(2-{6-[(3R,5R)-3-Amino-5-fluoropiperidine-1-carbonyl]-4-methoxy-3-methylpyrazolo[1,5-a]pyridin-2-yl}-1-(cyclopropylmethyl)-1H-indol-6-yl)piperidin-4-yl]-N-methylacetamide]	5.39
COc1cc(C(=O)N2C[C@H](N)C[C@@H](F)C2)cn2nc(-c3cc4ccc(N5CCC(N(C)C(C)=O)CC5)cc4n3CC3CC3)c(C)c12 [Example 244, N-[1-(2-{6-[(3R,5R)-3-Amino-5-fluoropiperidine-1-carbonyl]-4-methoxy-3-methylpyrazolo[1,5-a]pyridin-2-yl}-1-(cyclopropylmethyl)-1H-indol-6-yl)piperidin-4-yl]-N-methylacetamide]	7.15
COC(=O)N(C)C1CCN(c2ccc3cc(-c4nn5cc(C(=O)N6C[C@H](N)C[C@@H](F)C6)cc(OC)c5c4C)n(CC4CC4)c3c2)CC1 [Example 245, Methyl N-[1-(2-{6-[(3R,5R)-3-amino-5-fluoropiperidine-1-carbonyl]-4-methoxy-3-methylpyrazolo[1,5-a]pyridin-2-yl}-1-(cyclopropylmethyl)-1H-indol-6-yl)piperidin-4-yl]-N-methylcarbamate]	7.15
COc1cc(C(=O)N2C[C@H](N)C[C@@H](F)C2)cn2nc(-c3cc4ccc(N5CCC(N(C)S(C)(=O)=O)CC5)cc4n3CC3CC3)c(C)c12 [Example 246, N-[1-(2-{6-[(3R,5R)-3-Amino-5-fluoropiperidine-1-carbonyl]-4-methoxy-3-methylpyrazolo[1,5-a]pyridin-2-yl}-1-(cyclopropylmethyl)-1H-indol-6-yl)piperidin-4-yl]-N-methylmethanesulfonamide]	6.89
COc1cc(C(=O)N2C[C@H](N)C[C@@H](F)C2)cn2nc(-c3cc4ccc(N5CC(N(C)S(C)(=O)=O)C5)cc4n3CC3CC3)c(C)c12 [Example 247, N-[1-(2-{6-[(3R,5R)-3-Amino-5-fluoropiperidine-1-carbonyl]-4-methoxy-3-methylpyrazolo[1,5-a]pyridin-2-yl}-1-(cyclopropylmethyl)-1H-indol-6-yl)azetidin-3-yl]-N-methylmethanesulfonamide]	6.92
COc1cc(C(=O)N2CCC[C@@H](N)C2)cn2nc(-c3cc4ccc(N5CCC(S(C)(=O)=O)CC5)cc4n3CC3CC3)c(C)c12 [Example 248, (3R)-1-{2-[1-(Cyclopropylmethyl)-6-(4-methanesulfonylpiperidin-1-yl)-1H-indol-2-yl]-4-methoxy-3-methylpyrazolo[1,5-a]pyridine-6-carbonyl}piperidin-3-amine]	7.22
COc1cc(C(=O)N2CCC[C@@H](N)C2)cn2nc(-c3cc4ccc(N5CCC(OC)CC5)cc4n3CC3CC3)c(C)c12 [Example 249, (3R)-1-{2-[1-(Cyclopropylmethyl)-6-(4-methoxypiperidin-1-yl)-1H-indol-2-yl]-4-methoxy-3-methylpyrazolo[1,5-a]pyridine-6-carbonyl}piperidin-3-amine]	7.10
